The source of these data is publication PMC5503199 (Molecular microbiology, 2009).

In data set [1] the target is T1, ChoXWV (Sinorhizobium meliloti, UniProt Q92N37).
T1 sequence (Q92N37 28-318): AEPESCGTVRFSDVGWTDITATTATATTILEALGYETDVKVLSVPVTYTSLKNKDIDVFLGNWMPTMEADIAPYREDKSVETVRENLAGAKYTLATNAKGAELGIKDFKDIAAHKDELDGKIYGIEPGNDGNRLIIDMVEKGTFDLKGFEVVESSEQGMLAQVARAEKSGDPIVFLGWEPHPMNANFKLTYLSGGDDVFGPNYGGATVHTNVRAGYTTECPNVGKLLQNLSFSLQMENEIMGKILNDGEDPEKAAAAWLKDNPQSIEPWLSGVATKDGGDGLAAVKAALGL
T1 sequence (Q92N36 1-281 partner): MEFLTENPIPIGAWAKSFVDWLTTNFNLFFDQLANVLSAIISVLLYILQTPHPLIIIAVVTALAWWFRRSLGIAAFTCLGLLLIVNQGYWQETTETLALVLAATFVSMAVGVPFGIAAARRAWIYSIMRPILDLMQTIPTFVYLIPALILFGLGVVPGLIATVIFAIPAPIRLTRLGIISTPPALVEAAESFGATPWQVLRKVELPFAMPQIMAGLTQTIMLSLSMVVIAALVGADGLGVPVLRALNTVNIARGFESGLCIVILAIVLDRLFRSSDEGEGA
T1 sequence (Q92N35 1-349 partner): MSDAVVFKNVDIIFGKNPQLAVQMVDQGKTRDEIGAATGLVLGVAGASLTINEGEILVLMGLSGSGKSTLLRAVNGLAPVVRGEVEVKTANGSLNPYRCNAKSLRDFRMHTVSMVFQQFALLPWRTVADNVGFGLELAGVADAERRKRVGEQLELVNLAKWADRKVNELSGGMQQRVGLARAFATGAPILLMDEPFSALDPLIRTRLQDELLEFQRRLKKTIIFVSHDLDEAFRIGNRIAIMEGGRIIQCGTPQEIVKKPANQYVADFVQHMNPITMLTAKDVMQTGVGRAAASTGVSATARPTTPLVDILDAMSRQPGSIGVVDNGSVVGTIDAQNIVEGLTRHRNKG
Briefly: Competitive uptake, MKH13 expressing choXWV. The class given is cell-based. The conditions noted are these: pNchoXWV, SBP ChoX, [^14C]choline 10 μM, competitor 1 mM.

In data set [2] the test system is CaiX with CbcWV. The class given is cell-based, Pseudomonas aeruginosa. The conditions noted are these: MKH13; pNcbcWV, pT-PA5388; SBP CaiX; [^14C]carnitine 10 μM; competitor 1 mM.
Data set [3] has as its target CbcX with CbcWV (Pseudomonas aeruginosa, UniProt Q9HTI6). Briefly: Competitive uptake, MKH13 expressing cbcXWV. Type of data set: cell-based.
Data set [4] has as its system CbcX and CaiX with CbcWV. Type of data set: cell-based, Pseudomonas aeruginosa. To be noted: MKH13, pNcbcXWV, pT-PA5388, SBPs CbcX/CaiX, competitor 1 mM.
The target in data set [5] is T2, BetX with CbcWV (Pseudomonas aeruginosa, UniProt Q9HZ04).
T2 sequence (Q9HZ04 26-285): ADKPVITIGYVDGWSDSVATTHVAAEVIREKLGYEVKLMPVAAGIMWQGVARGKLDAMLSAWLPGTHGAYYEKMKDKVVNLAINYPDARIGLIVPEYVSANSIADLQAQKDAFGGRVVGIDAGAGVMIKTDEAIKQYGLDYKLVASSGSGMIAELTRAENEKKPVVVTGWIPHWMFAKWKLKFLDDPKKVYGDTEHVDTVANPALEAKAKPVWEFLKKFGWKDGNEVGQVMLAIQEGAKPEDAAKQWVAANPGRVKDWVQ
T2 sequence (Q9HTI7 1-279 partner): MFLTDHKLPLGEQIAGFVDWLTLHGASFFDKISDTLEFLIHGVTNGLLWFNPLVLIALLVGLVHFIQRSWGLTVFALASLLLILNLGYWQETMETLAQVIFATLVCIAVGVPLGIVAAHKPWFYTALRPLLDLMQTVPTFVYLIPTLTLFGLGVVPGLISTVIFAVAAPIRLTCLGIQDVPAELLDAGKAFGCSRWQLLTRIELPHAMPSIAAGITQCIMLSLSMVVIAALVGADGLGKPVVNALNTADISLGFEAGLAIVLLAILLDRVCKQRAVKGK
T2 sequence (Q9HTI8 1-392 partner): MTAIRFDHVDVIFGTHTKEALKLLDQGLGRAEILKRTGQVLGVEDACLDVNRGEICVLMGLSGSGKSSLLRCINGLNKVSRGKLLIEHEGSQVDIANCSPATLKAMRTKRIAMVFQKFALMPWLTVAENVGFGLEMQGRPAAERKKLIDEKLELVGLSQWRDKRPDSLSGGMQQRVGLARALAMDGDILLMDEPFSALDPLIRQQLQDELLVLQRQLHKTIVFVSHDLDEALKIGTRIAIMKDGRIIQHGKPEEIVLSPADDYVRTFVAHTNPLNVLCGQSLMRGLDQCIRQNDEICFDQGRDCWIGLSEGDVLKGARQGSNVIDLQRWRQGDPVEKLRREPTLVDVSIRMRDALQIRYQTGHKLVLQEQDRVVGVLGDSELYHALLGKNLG
Briefly: Competitive uptake, MKH13 expressing cbcWV and betX. Type of data set: cell-based. The conditions noted are these: pNcbcWV, pT-PA3236, SBP BetX, [^14C]betaine 10 μM, competitor 1 mM.

Substrate in data set [6]: C[N+](C)(C)CC(=O)O
Briefly: cells, lysate or membranes. To be noted: mean (SE), n = 4.

Substrate in data set [7]: C[N+](C)(C)C[C@H](O)CC(=O)[O-]
Briefly: cells, lysate or membranes. The conditions noted are these: other: PA5378::tn, pNcbcWV; SBP CaiXPAO1; mean (SE), n = 4.

Substrate in data set [8]: C[N+](C)(C)CCO
Briefly: cells, lysate or membranes. The conditions noted are these: mean (SE), n = 4.

The mark [9] stands for this setting: other: MKH13, pNcbcXWV, SBP CbcX, Michaelis–Menten fit.

Values joined by “and” are separate entries in the source; they are usually repeats but may differ in a detail not shown here. Identical values can stand only once. Like-named read-outs stand apart in the source and are kept apart here.

Take `CC(=O)OCC[N+](C)(C)C` [AC, acetylcholine]: the “% inhibition of uptake of substrate by unlabelled competitor” value (“% inhibition of uptake of substrate” below) in data set [1] amounted to 88%.

As to `CN(C)CC(=O)O` [DM, dimethylglycine], the “% inhibition of uptake of substrate” value in data set [2] was 2%; in data set [3], 4%; in data set [3] (MKH13, pNcbcXWV, SBP CbcX, [^14C]betaine 10 μM, competitor 1 mM), −5%; in data set [4] ([^14C]betaine 10 μM), −4%; in data set [4] ([^14C]choline 10 μM), −8%; in data set [5], 56%.

Consider `CNCC(=O)O` [MM, monomethylglycine], for which the “% inhibition of uptake of substrate” value was 0% in data set [2]; −3% and 2% in data set [3]; −4% in data set [1]; 3% in data set [4] ([^14C]betaine 10 μM); 2% in data set [4] ([^14C]choline 10 μM); −13% in data set [5].

Take `C[N+](C)(C)CCOP(=O)(O)O` [PC, phosphorylcholine]: the “% inhibition of uptake of substrate” value in data set [3] (MKH13, pNcbcXWV, SBP CbcX, [^14C]choline 10 μM, competitor 1 mM) is given as 1%; in data set [1], 5%.

B1: BetX with CbcWV (Pseudomonas aeruginosa PAO1) (protein)
chain: T2 sequence (Q9HZ04 26-285)
Consider B1, for which the Km in data set [6] (other: MKH13, pNcbcWV + pTPA3236, SBP BetX) is 0.6 (0.16) μM.

B2: CbcWV-CaiX (Pseudomonas aeruginosa PAO1) (protein)
chain: AEPEQCRTVRLGTVNWTDVVASSAVAEALLDGLGYQVKQTSASQQIVLAGLADKQLDLFLGYWQPTMQPVARPYLDKGRIEVIEPPTLADAQSTYAVPSYVAEGGLKTFADIARFKDKLGGRIYAIEPGSGSNRITRKMIDDNRFGLKGFQLVESSEAGMLTAVKRAIKRKQWVVFFGWKPHPMNLQIDMTYLTGSEDVFGPDEGAATVSTMTAAGYQAQCGNVARLLHNLRFSSAQVSQVMAPILDRTQPLDAARQWLKANPEPLKAWLDGVSTFDGKDGLAALQASLK
Consider B2, for which the Km in data set [7] is 24 μM and 24.2 (8.3) μM.

B3: ChoXWV (Sinorhizobium meliloti 1021) (protein)
chain: T1 sequence (Q92N37 28-318)
For the molecule B3, in data set [8] (other: MKH13, pNchoXWV, SBP ChoX), the Km was 1.8 (0.36) μM.

B4: CbcX with CbcWV (Pseudomonas aeruginosa PAO1) (protein)
chain: AEPESCASVRFADVGWTDITVTTAVTRQVLESLGYKTKVNLLSVPVTYRSLANNDLDVFLGNWMPTMTNDIKQYAEKGTVETLRANLEGAKYTLAVPQYVYDGGLRSFADIAKFSDKLGNKIYGIEPGNDGNRVAQSMIDKNAFELGKFKLVESSEAGMLSQVQRAIRRNQWVVFLGWEPHPMNTRFQMKYLEGGDDFFGPNYGGATIYTNVRKGYAQECANVGQLLKNLSFTLEMENKLMDAVLNENKKPEEAAKAWLKDHPEQLDAWLAGVTTRDGQPAAAAAKLAFAK
With B4, in data set [6] (setting [9]), the Km was 24.2 (2.4) μM and the Vmax is 11.6 (0.6) nmol min^-1. The Km in data set [8] (setting [9]) is on record as 2.6 (0.66) μM.
